According to the NIST ThermoML archive (doi:10.1021/je034208m):
Several values for one entry are separate records, joined by “and”; a condition that tells them apart may be missing. Equal values may be shown once. ± gives the expanded uncertainty stated by the source.

What was measured:
[1] = 101.33 kPa, Liquid; for speed of sound: Sing-around technique in a fixed-path interferometer
[2] = xn = mol fraction of the nth substance listed; details: 101.33 kPa, Liquid, x2 = 0; for speed of sound: Sing-around technique in a fixed-path interferometer

Compound | mass density ([1]; 293.15 K) [kg/m3] | viscosity ([1]; 293.15 K) [mPa·s] | speed of sound ([1]; 293.15 K) [m/s] | mass density ([1]; 298.15 K) | viscosity ([1]; 298.15 K) [mPa·s] | speed of sound ([1]; 298.15 K) [m/s] | mass density ([1]; 303.15 K) [kg/m3] | viscosity ([1]; 303.15 K) [mPa·s] | speed of sound ([1]; 303.15 K) [m/s] | speed of sound ([2]; 293.15 K) [m/s] | mass density ([2]; 293.15 K) [kg/m3] | viscosity ([2]; 293.15 K) [mPa·s] | speed of sound ([2]; 298.15 K) [m/s] | mass density ([2]; 298.15 K) [kg/m3] | viscosity ([2]; 298.15 K) [mPa·s] | speed of sound ([2]; 303.15 K) [m/s] | mass density ([2]; 303.15 K) [kg/m3] | viscosity ([2]; 303.15 K) [mPa·s]
CCCCCCCCCC [decane] | 729.89 ± 0.8 | 0.911 ± 0.016 | 1254 ± 1 | 726.12 ± 0.8 kg/m3 | 0.845 ± 0.015 | 1235 ± 1 | 722.33 ± 0.81 | 0.787 ± 0.014 | 1215 ± 1 | – | – | – | – | – | – | – | – | –
CCCCCCCCCC [decane] + CCCC(C)O | – | – | – | – | – | – | – | – | – | 1254 ± 1 | 729.89 ± 0.8 | 0.911 ± 0.016 | 1235 ± 1 | 726.12 ± 0.8 | 0.845 ± 0.015 | 1215 ± 1 | 722.33 ± 0.81 | 0.787 ± 0.014
CCCCCCCCCCCC [dodecane] | 748.54 ± 0.77 | 1.454 ± 0.024 | 1297 ± 1 | 744.9 ± 0.77 kg/m3 | 1.327 ± 0.022 | 1278 ± 1 | 741.27 ± 0.78 | 1.219 ± 0.02 | 1259 ± 1 | – | – | – | – | – | – | – | – | –

Now from value to molecule:

mass density ([1]; 293.15 K) [kg/m3] | viscosity ([1]; 293.15 K) [mPa·s] | speed of sound ([1]; 293.15 K) [m/s] | mass density ([1]; 298.15 K) | viscosity ([1]; 298.15 K) [mPa·s] | speed of sound ([1]; 298.15 K) [m/s] | mass density ([1]; 303.15 K) [kg/m3] | viscosity ([1]; 303.15 K) [mPa·s] | speed of sound ([1]; 303.15 K) [m/s] | speed of sound ([2]; 293.15 K) [m/s] | mass density ([2]; 293.15 K) [kg/m3] | viscosity ([2]; 293.15 K) [mPa·s] | speed of sound ([2]; 298.15 K) [m/s] | mass density ([2]; 298.15 K) [kg/m3] | viscosity ([2]; 298.15 K) [mPa·s] | speed of sound ([2]; 303.15 K) [m/s] | mass density ([2]; 303.15 K) [kg/m3] | viscosity ([2]; 303.15 K) [mPa·s] | Compound
– | – | – | – | – | – | – | – | – | 1297 ± 1 | 748.54 ± 0.77 | 1.454 ± 0.024 | 1278 ± 1 | 744.9 ± 0.77 | 1.327 ± 0.022 | 1259 ± 1 | 741.27 ± 0.78 | 1.219 ± 0.02 | CCCCCCCCCCCC [dodecane] + CCCC(C)O
702.57 ± 0.78 | 0.538 ± 0.01 | 1193 ± 1 | 698.54 ± 0.79 kg/m3 | 0.506 ± 0.009 | 1173 ± 1 | 694.49 ± 0.8 | 0.478 ± 0.009 | 1152 ± 1 | – | – | – | – | – | – | – | – | – | CCCCCCCC [octane]
– | – | – | – | – | – | – | – | – | 1193 ± 1 | 702.57 ± 0.78 | 0.538 ± 0.01 | 1173 ± 1 | 698.54 ± 0.79 | 0.506 ± 0.009 | 1152 ± 1 | 694.49 ± 0.8 | 0.478 ± 0.009 | CCCCCCCC [octane] + CCCC(C)O
809.04 ± 0.99 | 4.001 ± 0.075 | 1250 ± 2 | 805.01 ± 0.99 kg/m3 and 805 ± 0.99 kg/m3 | 3.273 ± 0.063 | 1232 ± 2 | 800.9 ± 0.99 | 2.708 ± 0.053 | 1214 ± 2 | – | – | – | – | – | – | – | – | – | CCCC(C)O (stereo not drawn) [pentan-2-ol]
